# Measurements as given in patent US10265331B2, “Prevention or treatment agent for hepatic fibrosis” (priority 2012, dated 2019).
# Key:
# CBP/β-catenin = CBP/β-catenin (Homo sapiens, UniProt Q92793); details: reporter assay of WO 2009/148192; cited from earlier work
# [1] = tested on: chronic hepatitis C model mouse (Cre/loxP/HCV-MxCre Tg mouse); assay: Treatment effect on hepatic fibrosis by histological staining of liver of model mouse; type: in vivo
# Protocol: The expression of Cre in the liver of these mice was induced by intraperitoneal injection of polyinosinic-polycytidylic acid [Poly(I:C)] (purchased from GE Healthcare UK Ltd. (Buckinghamshire, England)). That is, 300 μL of poly(I:C) solution (1 mg/mL phosphate buffered saline [PBS]) was intraperitoneally injected, after lapse of 2 months from birth, […] 3 times at 48 hr intervals. HCV gene expression can be induced in almost all hepatocytes by performing this poly(I:C) administration operation once.
# A CBP/β-catenin inhibitor was intraperitoneally administered to the CN2-29^(+/−)/MxCre^(+/−) mouse obtained in Example 1, and whether the CBP/β-catenin inhibitor has a treatment effect on hepatic fibrosis was examined by histological staining of the hepatic tissues collected from the model mouse.
# A CBP/β-catenin inhibitor was dissolved in commercially available PBS (pH 7.6), and the pH was adjusted again to 7.6 with an aqueous sodium hydroxide solution to give a 40 mg/ml CBP/β-catenin inhibitor solution. This solution (250 μl) was filled in an osmotic pressure pump (ALZET mini-osmotic pump model 2006) and embedded subcutaneously in the back of mouse, whereby a CBP/β-catenin inhibitor was administered at 0.15 μl/hr for 42 days in a sustained manner. For the control group, commercially available PBS (pH7.6) was similarly filled in an osmotic pressure pump and administered as a vehicle by embedding same subcutaneously in the back of mouse.
# Autopsy was performed on day 42 from the administration of the CBP/β-catenin inhibitory compound of (1), the liver was removed and histologically searched.
# As for staining, the whole image of the tissue was stained and observed by hematoxylin-eosin staining (HE staining), and fiber was stained and observed by silver staining and Azan staining.
# A tissue sample was fixed with 4% para-formaldehyde in PBS, embedded in paraffin and sliced (thickness 4 μm). The obtained section was subjected to hematoxylin-eosin staining (HE), silver staining and Azan staining.
# Hematoxylin-eosin staining was performed according to the method described in a handbook of histopathological staining (Kiyoyuki Takahashi, Igaku-Shoin).
# Silver staining was performed according to the method described in a handbook of histopathological staining (Kiyoyuki Takahashi, Igaku-Shoin).
# Azan staining was performed according to the method described in a handbook of histopathological staining (Kiyoyuki Takahashi, Igaku-Shoin).
# Chain of CBP/β-catenin (Q92793 whole entry): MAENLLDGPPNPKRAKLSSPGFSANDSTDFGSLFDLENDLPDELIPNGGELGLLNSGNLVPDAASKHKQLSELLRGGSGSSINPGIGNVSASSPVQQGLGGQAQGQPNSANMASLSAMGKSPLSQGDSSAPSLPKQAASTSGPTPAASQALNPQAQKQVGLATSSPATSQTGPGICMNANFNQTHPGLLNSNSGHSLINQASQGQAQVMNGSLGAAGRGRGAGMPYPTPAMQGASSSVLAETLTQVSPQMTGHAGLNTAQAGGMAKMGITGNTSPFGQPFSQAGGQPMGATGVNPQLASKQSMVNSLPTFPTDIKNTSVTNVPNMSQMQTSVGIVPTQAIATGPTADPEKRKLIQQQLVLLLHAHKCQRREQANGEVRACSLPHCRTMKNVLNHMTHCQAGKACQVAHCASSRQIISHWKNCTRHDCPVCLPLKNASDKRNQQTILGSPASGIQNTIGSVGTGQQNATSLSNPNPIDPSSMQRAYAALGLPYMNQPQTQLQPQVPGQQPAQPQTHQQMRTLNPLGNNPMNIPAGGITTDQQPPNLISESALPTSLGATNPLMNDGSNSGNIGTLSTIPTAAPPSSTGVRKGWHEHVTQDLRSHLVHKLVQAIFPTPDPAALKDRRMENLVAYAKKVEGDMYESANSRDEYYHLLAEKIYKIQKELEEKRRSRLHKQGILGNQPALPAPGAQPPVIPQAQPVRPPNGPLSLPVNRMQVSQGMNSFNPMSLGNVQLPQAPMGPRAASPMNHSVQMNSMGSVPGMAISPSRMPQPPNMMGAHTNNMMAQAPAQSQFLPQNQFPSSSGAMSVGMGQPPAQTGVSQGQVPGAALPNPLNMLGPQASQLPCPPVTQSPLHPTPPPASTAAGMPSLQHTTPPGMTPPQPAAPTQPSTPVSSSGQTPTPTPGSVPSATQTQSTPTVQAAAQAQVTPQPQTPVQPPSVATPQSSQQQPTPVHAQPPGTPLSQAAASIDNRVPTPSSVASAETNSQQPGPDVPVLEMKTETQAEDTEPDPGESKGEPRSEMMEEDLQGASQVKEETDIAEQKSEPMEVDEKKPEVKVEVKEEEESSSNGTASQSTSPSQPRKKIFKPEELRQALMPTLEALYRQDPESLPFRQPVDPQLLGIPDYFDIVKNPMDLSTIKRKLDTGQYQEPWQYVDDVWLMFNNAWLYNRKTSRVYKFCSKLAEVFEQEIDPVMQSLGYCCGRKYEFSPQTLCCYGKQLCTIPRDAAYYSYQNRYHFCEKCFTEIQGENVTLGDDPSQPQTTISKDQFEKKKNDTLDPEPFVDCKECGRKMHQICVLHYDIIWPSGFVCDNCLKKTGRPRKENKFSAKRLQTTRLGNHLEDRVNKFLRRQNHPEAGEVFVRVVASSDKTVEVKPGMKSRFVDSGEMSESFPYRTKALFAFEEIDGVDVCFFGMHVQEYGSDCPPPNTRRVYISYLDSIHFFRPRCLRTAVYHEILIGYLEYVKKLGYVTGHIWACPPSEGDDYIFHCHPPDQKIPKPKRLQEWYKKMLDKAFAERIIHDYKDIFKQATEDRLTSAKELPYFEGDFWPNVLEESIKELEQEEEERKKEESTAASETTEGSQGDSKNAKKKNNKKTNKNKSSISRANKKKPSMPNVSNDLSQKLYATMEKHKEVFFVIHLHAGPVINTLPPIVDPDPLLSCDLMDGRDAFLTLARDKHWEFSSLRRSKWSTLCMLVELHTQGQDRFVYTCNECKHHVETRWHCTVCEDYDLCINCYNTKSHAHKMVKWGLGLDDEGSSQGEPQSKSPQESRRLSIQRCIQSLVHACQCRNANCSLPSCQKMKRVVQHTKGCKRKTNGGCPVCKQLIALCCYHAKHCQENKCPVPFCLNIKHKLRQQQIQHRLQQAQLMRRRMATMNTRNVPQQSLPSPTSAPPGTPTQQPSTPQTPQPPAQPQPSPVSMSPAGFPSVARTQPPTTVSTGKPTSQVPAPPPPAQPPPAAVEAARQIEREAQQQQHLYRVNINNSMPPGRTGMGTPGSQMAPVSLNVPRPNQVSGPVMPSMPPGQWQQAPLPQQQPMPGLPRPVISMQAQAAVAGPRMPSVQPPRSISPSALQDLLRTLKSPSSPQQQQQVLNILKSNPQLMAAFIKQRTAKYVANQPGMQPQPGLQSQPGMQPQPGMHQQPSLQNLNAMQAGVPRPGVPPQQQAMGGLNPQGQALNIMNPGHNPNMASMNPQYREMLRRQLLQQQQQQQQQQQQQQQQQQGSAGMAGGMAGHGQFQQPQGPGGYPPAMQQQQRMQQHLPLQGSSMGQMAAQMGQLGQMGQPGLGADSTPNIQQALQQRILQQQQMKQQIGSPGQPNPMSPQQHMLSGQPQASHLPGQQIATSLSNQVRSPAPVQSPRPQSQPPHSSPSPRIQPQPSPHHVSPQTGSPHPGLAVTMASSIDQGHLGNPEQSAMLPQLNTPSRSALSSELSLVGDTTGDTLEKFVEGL
compound,measurement,setting,value
"C[C@H]1C2N(C(=O)CN(C)N2C(=O)NCc2ccccc2)[C@@H](Cc2ccc(OP(=O)(O)O)cc2)C(=O)N1Cc1cccc2cccnc12 (stereo partly drawn) [CBP/β-catenin inhibitory compound, 4-(((6S,9S)-1-(benzylcarbamoyl)-2,9-dimethyl-4,7-dioxo-8-(quinolin-8-ylmethyl)octahydro-1H-pyrazino[2,1-c][1,2,4]triazin-6-yl)methyl)phenyl dihydrogen phosphate]",CBP/β-catenin inhibitory action,CBP/β-catenin,confirmed
same,hepatic lobule structure (defibrosing action),"[1]; CN2-29(+/-)/MxCre(+/-) mouse, 40 mg/ml solution by subcutaneous osmotic pump, 0.15 μl/hr for 42 days, HE, silver and Azan staining (FIG. 2-4)",improved hepatic lobule structure
same,"hepatocyte cord structure of liver tissue, hematoxylin-eosin staining","[1]; administration for 42 days, FIG. 2",normalized to take a cord-like form
same,"staining of reticular fiber, silver staining","[1]; administration for 42 days, FIG. 3",weakened and normalized
same,"staining of collagenous fibers, Azan staining","[1]; administration for 42 days, FIG. 4",normalized
